The record followed here is patent US8871753B2, “Macrocyclic compounds and their use as kinase inhibitors” (Incyte Corporation, priority 2008, dated 2014).

Format in all cases: biochemical
In test [1] the target is TYK2 (Homo sapiens, UniProt P29597). The test can be described thus: TYK2 kinase inhibition (Table A1).
For test [2], the target named is T1, human JAK1 (a.a. 837-1142) (Homo sapiens, UniProt P23458).
T1 construct: human JAK1 (a.a. 837-1142); His tag (N); made in house; host or cells: insect cells (baculovirus)
The test can be described thus: In vitro JAK kinase assay (HTRF, phosphorylation of a biotinylated peptide), JAK1. As to conditions: read-out: JAK1 IC50. A digest of the protocol: (§1)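 Kinase activity was measured as phosphorylation of a biotinylated peptide, with ATP at 90 μM for JAK1, 30 μM for JAK2 and 3 μM for JAK3. Reactions ran 1 hr at room temperature, were stopped with EDTA plus SA-APC and Eu-Py20, and were read by HTRF after 40 minutes of antibody binding.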

Test [3] has as its target T2, Recombinant Human Anaplastic Lymphoma Kinase (Homo sapiens, UniProt Q9UM73).
T2 construct: purchased Invitrogen, Carlsbad, Calif
The test can be described thus: ALK HTRF kinase assay. Summed up: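 Kinase activity of the recombinant human protein is measured on a biotinylated peptide, with a Eu-W1024 anti-phosphotyrosine antibody and streptavidin-allophycocyanin generating the homogeneous time-resolved fluorescence signal. Inhibition curves are fitted to yield IC50.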

The target in test [4] is T3, human JAK3 (a.a. 781-1124) (Homo sapiens, UniProt P52333).
T3 construct: JAK3 (a.a. 781-1124); His tag (N); made in house; host or cells: insect cells (baculovirus)
The test can be described thus: In vitro JAK kinase assay (HTRF, phosphorylation of a biotinylated peptide), JAK3. Summed up: as §1

Test [5] has as its target T4, human JAK2 (a.a. 828-1132) (Homo sapiens, UniProt O60674).
T4 construct: JAK2 (a.a. 828-1132); His tag (N); made in house; host or cells: insect cells (baculovirus)
Put plainly: In vitro JAK kinase assay (HTRF, phosphorylation of a biotinylated peptide), JAK2. A digest of the protocol:
as §1

The mark [6] stands for this setting: Table B1, cells without percent sign.
The mark [7] stands for this setting: method AA1 (90 μM ATP) or AA2 (1000 μM ATP), not stated per value.
Where [8] appears, read: compound at 500 nM or 1 mM, 90 μM ATP.
Where [9] appears, read: method AA1 (3 μM ATP) or AA2 (1000 μM ATP), not stated per value.
[10] abbreviates: method AA1 (30 μM ATP) or AA2 (1000 μM ATP), not stated per value.

Counter-ions that a name gives are not always drawn. Like-named read-outs stand apart in the source and are kept apart here. Some results are limits rather than exact numbers.

T1 sequence (P23458 849-1154): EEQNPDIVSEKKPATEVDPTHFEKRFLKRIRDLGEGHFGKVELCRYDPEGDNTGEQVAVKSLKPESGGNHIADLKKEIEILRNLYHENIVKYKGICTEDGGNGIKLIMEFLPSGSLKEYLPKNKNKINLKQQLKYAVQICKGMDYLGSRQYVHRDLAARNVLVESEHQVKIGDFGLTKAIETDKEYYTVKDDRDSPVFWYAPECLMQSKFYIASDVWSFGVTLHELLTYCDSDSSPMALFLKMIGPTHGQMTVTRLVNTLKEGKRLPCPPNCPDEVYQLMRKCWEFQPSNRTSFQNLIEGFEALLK
T3 sequence (P52333 781-1124): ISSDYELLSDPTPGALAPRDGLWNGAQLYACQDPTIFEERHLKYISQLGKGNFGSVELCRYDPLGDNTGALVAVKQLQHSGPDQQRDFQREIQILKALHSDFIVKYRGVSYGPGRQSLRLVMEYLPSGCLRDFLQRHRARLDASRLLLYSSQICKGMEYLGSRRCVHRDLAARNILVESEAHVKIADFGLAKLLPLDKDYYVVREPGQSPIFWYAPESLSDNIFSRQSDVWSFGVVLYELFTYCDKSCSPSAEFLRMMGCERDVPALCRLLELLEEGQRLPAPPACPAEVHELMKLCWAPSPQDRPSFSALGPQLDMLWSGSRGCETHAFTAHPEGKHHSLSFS
T2 sequence (Q9UM73 19-1620): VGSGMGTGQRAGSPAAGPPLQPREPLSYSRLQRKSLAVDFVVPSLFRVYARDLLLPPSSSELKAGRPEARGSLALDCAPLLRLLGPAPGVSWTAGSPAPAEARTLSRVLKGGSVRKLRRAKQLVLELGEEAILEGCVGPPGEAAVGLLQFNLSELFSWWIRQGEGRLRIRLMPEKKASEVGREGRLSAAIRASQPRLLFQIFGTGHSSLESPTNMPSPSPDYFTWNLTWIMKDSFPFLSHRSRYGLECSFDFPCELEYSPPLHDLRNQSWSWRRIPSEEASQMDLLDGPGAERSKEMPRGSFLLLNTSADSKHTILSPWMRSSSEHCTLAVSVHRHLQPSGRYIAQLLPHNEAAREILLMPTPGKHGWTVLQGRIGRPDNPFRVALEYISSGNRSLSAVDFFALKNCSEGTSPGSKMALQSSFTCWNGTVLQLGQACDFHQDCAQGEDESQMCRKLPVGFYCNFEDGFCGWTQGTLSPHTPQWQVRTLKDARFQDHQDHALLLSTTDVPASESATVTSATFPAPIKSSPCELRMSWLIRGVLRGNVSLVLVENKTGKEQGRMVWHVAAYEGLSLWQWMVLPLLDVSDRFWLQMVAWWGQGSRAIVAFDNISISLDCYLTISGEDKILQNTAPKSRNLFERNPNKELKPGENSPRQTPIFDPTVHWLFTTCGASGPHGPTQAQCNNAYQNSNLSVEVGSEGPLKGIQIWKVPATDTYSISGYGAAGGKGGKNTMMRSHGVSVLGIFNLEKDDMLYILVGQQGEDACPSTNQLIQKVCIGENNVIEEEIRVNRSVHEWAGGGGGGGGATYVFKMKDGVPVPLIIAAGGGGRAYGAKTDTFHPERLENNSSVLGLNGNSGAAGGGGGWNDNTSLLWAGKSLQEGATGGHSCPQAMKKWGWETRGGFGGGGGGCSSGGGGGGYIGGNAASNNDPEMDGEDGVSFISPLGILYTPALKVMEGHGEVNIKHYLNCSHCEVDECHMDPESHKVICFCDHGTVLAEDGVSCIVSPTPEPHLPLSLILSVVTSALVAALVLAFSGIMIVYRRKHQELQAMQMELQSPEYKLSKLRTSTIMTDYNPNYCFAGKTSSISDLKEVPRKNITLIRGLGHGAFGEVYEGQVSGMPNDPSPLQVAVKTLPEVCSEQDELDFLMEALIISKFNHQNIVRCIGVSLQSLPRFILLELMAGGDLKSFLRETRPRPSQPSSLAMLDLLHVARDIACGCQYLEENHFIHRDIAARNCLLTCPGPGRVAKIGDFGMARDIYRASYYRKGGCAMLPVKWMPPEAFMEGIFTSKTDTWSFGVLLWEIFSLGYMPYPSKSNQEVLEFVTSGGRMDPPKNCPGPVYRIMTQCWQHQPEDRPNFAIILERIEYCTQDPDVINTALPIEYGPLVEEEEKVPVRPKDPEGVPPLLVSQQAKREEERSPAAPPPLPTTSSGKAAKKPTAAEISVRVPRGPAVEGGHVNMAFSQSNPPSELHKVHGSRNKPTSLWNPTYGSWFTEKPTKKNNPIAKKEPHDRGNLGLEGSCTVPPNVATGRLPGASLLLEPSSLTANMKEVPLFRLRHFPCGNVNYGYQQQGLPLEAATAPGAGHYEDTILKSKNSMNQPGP
Chain of TYK2 (P29597 whole entry): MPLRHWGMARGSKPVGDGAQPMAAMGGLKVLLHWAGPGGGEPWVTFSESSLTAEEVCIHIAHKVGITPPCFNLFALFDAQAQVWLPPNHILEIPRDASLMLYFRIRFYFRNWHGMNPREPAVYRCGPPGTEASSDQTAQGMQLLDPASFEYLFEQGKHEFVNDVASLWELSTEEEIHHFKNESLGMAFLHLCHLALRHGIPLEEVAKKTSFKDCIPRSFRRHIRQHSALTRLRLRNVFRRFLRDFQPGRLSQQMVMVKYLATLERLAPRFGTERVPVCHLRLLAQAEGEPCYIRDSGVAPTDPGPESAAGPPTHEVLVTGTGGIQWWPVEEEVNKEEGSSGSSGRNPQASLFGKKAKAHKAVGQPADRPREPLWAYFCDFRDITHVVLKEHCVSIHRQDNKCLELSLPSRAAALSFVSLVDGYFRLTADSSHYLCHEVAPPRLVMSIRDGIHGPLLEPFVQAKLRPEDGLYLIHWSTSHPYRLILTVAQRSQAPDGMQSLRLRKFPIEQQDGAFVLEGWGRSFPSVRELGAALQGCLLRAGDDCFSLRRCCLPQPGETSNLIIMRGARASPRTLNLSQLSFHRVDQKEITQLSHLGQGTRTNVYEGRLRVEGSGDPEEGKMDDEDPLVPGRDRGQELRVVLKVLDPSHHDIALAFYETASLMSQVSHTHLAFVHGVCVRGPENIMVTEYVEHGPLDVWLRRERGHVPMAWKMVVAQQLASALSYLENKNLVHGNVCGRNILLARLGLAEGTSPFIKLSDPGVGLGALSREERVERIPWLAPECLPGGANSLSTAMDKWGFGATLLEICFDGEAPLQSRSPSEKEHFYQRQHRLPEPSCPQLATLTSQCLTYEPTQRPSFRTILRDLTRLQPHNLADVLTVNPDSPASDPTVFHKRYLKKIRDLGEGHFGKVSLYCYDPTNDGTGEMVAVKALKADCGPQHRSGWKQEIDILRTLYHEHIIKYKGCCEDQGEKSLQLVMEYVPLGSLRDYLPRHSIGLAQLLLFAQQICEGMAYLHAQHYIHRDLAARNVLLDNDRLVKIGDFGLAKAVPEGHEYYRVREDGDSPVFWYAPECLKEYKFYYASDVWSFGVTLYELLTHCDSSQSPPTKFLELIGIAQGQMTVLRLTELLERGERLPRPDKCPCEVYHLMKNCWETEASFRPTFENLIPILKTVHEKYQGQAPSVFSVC
T4 sequence (O60674 828-1132): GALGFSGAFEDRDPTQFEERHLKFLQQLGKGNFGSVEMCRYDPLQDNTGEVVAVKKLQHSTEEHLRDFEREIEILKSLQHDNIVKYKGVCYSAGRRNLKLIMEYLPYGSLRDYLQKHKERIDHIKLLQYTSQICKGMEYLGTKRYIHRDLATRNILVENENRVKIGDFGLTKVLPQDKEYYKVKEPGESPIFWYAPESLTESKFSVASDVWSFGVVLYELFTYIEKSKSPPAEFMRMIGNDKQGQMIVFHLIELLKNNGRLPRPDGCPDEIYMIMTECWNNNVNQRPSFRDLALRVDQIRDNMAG

Turning to `CCS(=O)(=O)Nc1ccc2cc1CCc1cccc(c1)Nc1ncc(Cl)c(n1)N2` [Example B141, N-[6-Chloro-2,4,8,22-tetraazatetracyclo[14.3.1.1(3,7).1(9,13)]docosa-1(20), 3(22),4,6,9(21),10,12,16,18-nonaen-12-yl]ethanesulfonamide trifluoroacetate], the half-inhibitory concentration (IC50) in test [1] (Table B1) turned out to be 1.2 nM; in test [2] (Table B1) it was 0.8 nM; in test [3] (setting [6]), 740 nM; in test [4] (Table B1) it was 3 nM; in test [5] (Table B1) it was 0.2 nM.
Consider `Cc1cc(C(=O)N2CCC(C(=O)N(C)Cc3ccc4cc3CCc3cncc(c3)Nc3ncc(Cl)c(n3)N4)CC2)no1` [Example B335, N-{[6-Chloro-2,4,8,18,22-pentaazatetracyclo[14.3.1.1(3,7).1(9,13)]docosa-1(20),3(22),4,6,9(21),10,12,16,18-nonaen-12-yl]methyl}-N-methyl-1-[(5-methylisoxazol-3-yl)carbonyl]piperidine-4-carboxamide bis(trifluoroacetate)], for which the IC50 in test [1] (Table B1) is > 200 nM; in test [2] (Table B1), 45 nM; in test [4] (Table B1), > 200 nM; in test [5] (Table B1) it was 77 nM. The “ALK % of inhibition at a concentration of 500 nM or 1 mM” value in test [3] (percentage inhibition of the example compound at a concentration of 500 nM or 1 mM (not specified which)) is reported as 18%.
With `O=C(CC1CCN(S(=O)(=O)c2ccco2)CC1)Nc1ccc2cc1CCc1cncc(c1)Nc1ncc(Cl)c(n1)N2` [Example A201, N-[6-Chloro-2,4,8,18,22-pentaazatetracyclo[14.3.1.1(3,7).1(9,13)]docosa-1(20),3(22),4,6,9(21),10,12,16,18-nonaen-12-yl]-2-[1-(2-furylsulfonyl)piperidin-4-yl]acetamide bis(trifluoroacetate)], the IC50 in test [1] was 150 nM; in test [2] (setting [7]) it was 9.3 nM; in test [4] (setting [9]), > 200 nM; in test [5] (setting [10]), 100 nM. Moreover, the “ALK % of inhibition at a concentration of 500 nM or 1 mM” value in test [3] (setting [8]) is recorded as 31%.
On the same counts, the results for `Cn1ccc(C(=O)N2CCC(CC(=O)Nc3ccc4cc3CCc3cncc(c3)Nc3ncc(Cl)c(n3)N4)CC2)n1` [Example A130, N-[6-Chloro-2,4,8,18,22-pentaazatetracyclo[14.3.1.1(3,7).1(9,13)]docosa-1(20),3(22),4,6,9(21),10,12,16,18-nonaen-12-yl]-2-{1-[(1-methyl-1H-pyrazol-3-yl)carbonyl]piperidin-4-yl}acetamide bis(trifluoroacetate)] are 4.8 nM, 1.2 nM, 203 nM, 9.2 nM and 26%.
`O=C(Nc1ccc2cc1CCc1cccc(c1)Nc1ncc(Cl)c(n1)N2)c1ccco1` [Example B33, N-[6-Chloro-2,4,8,22-tetraazatetracyclo[14.3.1.1(3,7).1(9,13)]docosa-1(20), 3(22),4,6,9(21),10,12,16,18-nonaen-12-yl]-2-furamide trifluoroacetate]: the IC50 worked out at 9.7 nM in test [1] (Table B1); 2.1 nM in test [2] (Table B1); 820 nM in test [3] (setting [6]); 44 nM in test [4] (Table B1); 2.6 nM in test [5] (Table B1).
Consider `Clc1cnc2nc1Nc1cccc(c1)OCCNc1cccc(c1)N2` [Example D70, 6-Chloro-14-oxa-2,4,8,17,24-pentaazatetracyclo[16.3.1.1(3,7).1(9,13)]tetracosa-1(22),3(24),4,6,9(23),10,12,18,20-nonaene bis(trifluoroacetate)], for which the IC50 stood at 5 nM in test [1] (Table D1); 9 nM in test [2] (Table D1); 375 nM in test [3] (Table D1, 90 μM ATP); 8.1 nM in test [4] (Table D1); 2.1 nM in test [5] (Table D1).
In the case of `O=C(c1cc2cc(c1)Nc1nc(ncc1Cl)Nc1cccc(c1)CC2)N1CCCC(O)C1` (centres unmarked) [Example B12, 1-{[6-Chloro-2,4,8,22-tetraazatetracyclo[14.3.1.1(3,7).1(9,13)]docosa-1(20), 3(22),4,6,9(21),10,12,16,18-nonaen-11-yl]carbonyl}piperidin-3-ol trifluoroacetate], the IC50 in test [1] (Table B1) was 312 nM; in test [2] (Table B1) it was 235 nM; in test [3] (setting [6]) it was > 10000 nM; in test [4] (Table B1), 450 nM; in test [5] (Table B1) it was 112 nM.
